# Earlier results, collected in paper PMC10135567, “New Indole-3-Propionic Acid and 5-Methoxy-Indole Carboxylic Acid Derived Hydrazone Hybrids as Multifunctional Neuroprotectors” (Antioxidants, 2023).
# Tested on: SH-SY5Y cells and isolated rat-brain synaptosomes
# Parameters: method as in PMID 35624746
# Details: SH-SY5Y cells and rat-brain synaptosomes under toxic agents of oxidative stress; cited from earlier work
smiles,measurement,value
O=C(CCn1c(=S)n(CCC(=O)N/N=C/c2cccc(O)c2O)c2ccccc21)N/N=C/c1cccc(O)c1O [VIII],cellular and synaptosomal viability restored,up to 80%
